Where two headings read alike, the source gives them in different places. Where a SMILES comes first, the peptide text is derived from it. Where no end group is shown, it is not given here.
Tests used:
PBMC = PBMC stimulation test, IL-6 in supernatant by ELISA; assay type: cell-based, human; conditions: PBMC 1×10^6 cell/ml, peptide 10 μg/ml, 5 days of culture
Description: The SE-DR molecule is directly related to the pathogenesis of RA. It can present RA-related autoantigens in vivo, such as type II collagen (CII), heat shock protein 60 (Hsp60), cartilage glycoprotein (HCgp-39) and so on, and further activate autoreactive T cells, leading to the occurrence of rheumatoid arthritis. An important strategy for the treatment of RA is to use competitive inhibition to block the activation of autoreactive T cells by autoantigen peptides. […] Based on the above principles, we have designed and synthesized a series of altered peptide ligands, and screened for their affinity to SE-DR and for the activation ability on the peripheral blood T cells in RA patients. The specific steps and results are shown in Example 1 and Example 2.
3 mL ficoll was added to a 15 mL centrifuge tube, and 4 mL blood sample was then applied on the surface of ficoll. The tube was centrifuged at 400 g at 18-20° C. for 30-40 min. The upper layer of plasma was aspirated with a Pasteur pipette, and the PBMC layer (approximately 2 mL) was aspirated, and added to a 14 mL centrifuge tube previously filled with at least 3 volumes (6 mL) of PBS. The mixture was gently resuspended. The tube was centrifuged at 60-100 g for 10 min at 18-20° C. After centrifugation, the supernatant was removed with a Pasteur pipette, and the resulting cell mass was resuspended in 6-8 mL PBS and centrifuged at 18-20° C. for 10 min at 60-100 g to remove the supernatant. The cells were resuspended in an appropriate amount of 1640 complete medium and diluted to 1×10^6 cell/ml after cell counting. The diluted cell suspension was added to a 96-well plate. The positive control, allosteric peptide, was added to 100 μl cell culture to a final concentration of 10 μg/ml. The mixture was replenished to 200 μL with 1640 complete medium. After 5 days of culture, the supernatant was aspirated, centrifuged at 3000 rpm for 5 minutes, and the level of IL-6 in the supernatant was detected by ELISA.

CIA rats [1] = test: CIA rat model: inflammation score AUC and peripheral blood T-cell subtypes (Example 3); assay type: in vivo; conditions: 0.2 mmol; for Inflammation score and area under the time curve (AUC): female Lewis CIA rats, tail vein once every other day for 15 days; for Th1 (%) / Th2 (%) / Th17 (%) / Treg (%): peripheral blood, […] after end of administration, flow cytometry
Experimental: Collagen-induced arthritis (CIA) model was established by intradermal injection of the emulsion formulated using type II bovine collagen (CII) together with incomplete Freund's adjuvant (IFA) into the tail head of a female Lewis rat. After the model establishment, the morphological changes of rats' four paws were examined every day. […] Except for the model group, the dosage of polypeptide was all set as 0.2 mmol. A control group was also set up, in which the drug was injected into the tail vein once every other day for […]. The area under the curve (AUC) of the inflammation score was used for the efficacy analysis from the day the rats were enrolled, once every other day, until the end of administration.

[2] = tested on: immune system of healthy rats; test: Immune indicators of SD rats after one month of administration (Example 4); assay type: in vivo, rat; conditions: once a day for 4 weeks, end of administration
Experimental: SD rats were used to investigate the effects of the SE-DR affinity peptides on the immune indicators of the rats after continuous administration for one month. […] At the end of administration, analysis was conducted on the serum anti-FNS007 antibodies, different types of serum immunoglobulins, the serum complement, the peripheral blood T lymphocyte and the serum cytokines.

[3] = tested on: immune system of healthy monkeys; test: Immune indicators of cynomolgus monkeys after one month of administration (Example 5); assay type: in vivo, cynomolgus monkey; conditions: once a day for 4 weeks, end of administration
Description: Cynomolgus monkeys were used to investigate the effects of the SE-DR affinity peptide on the immune indicators of cynomolgus monkeys after continuous administration for one month. […] At the end of administration, the immune indicators, including the serum anti-FNS007 antibodies, the immunoglobulins of different serotypes, the serum complement, the peripheral blood T lymphocyte and the serum cytokines, were observed.

[4] = tested on: CIA mice infected with chronic hepatitis B; test: CIA mice infected with chronic hepatitis B (Example 8); assay type: in vivo, mouse; conditions: for ALT level / Hepatitis B activation rate (Ratio of ALT > 100 U/L): at sacrifice, day 28; for Observation on the daily condition of mice: during administration; for Inflammation score and area under the time curve (AUC): peptides 50 μmol, Abatacept 100 μg, tail i.v. once every other day for 27 days
Experimental: Establishment of chronic hepatitis B model in mice: DBA/1 mice were injected with Raav8-1. 3 HBV (1×10^12 vg/mL) via tail vein to establish HBV chronic hepatitis B model.
DBA/1 mice infected with chronic hepatitis B were used to establish CIA model with chronic hepatitis B infection. Methods: Two days after the mice were injected with Raav8-1.3 HBV (1×10^12 vg/mL) via tail vein, the emulsion of bovine C II and CFA (containing 100 μg collagen) was intradermally injected into the tail head of the mice for immunization. After 21 days, the mice were boosted once by intraperitoneal injection of the emulsion (containing 100 μg collagen) prepared by bovine C II and IFA. Thereafter, the morphological changes of the four paws of the mice were examined every day, and the mice were randomly assigned to the treatment group at inflammation score of 1. […] Another 10 mice with latent hepatitis B infection were not subjected to model establishment and set as the control group. PBS was administrated to both the model group and the control group. The mice in each group were given the corresponding drugs by tail intravenous injection at the volume of 10 ml/kg, once every other day, for 27 consecutive days. The mice were sacrificed on day 28 after administration. The inflammation scores of the four paws of the mice in each group were evaluated during the administration. The serological indicators for virus injection and liver function of the mice were detected on the day of booster immunization (22 days after tail vein injection) and at the time of sacrifice.

[5] = tested on: CIA rats with latent tuberculosis infection; conditions: for Observation on the daily condition of rats: during administration; for Tuberculosis recurrence rate / Inflammation score and area under the time curve (AUC) / Culture of MTB from lungs and spleens of rats at sacrifice: peptides 0.2 mmol, adalimumab 1 mg/kg; for Tuberculosis recurrence rate: 21 days; for Inflammation score and area under the time curve (AUC): tail i.v. once every other day for 21 days; for Culture of MTB from lungs and spleens of rats at sacrifice: sacrifice on day 22
CIA rats [6] = assay type: in vivo, rat
Description: Female Lewis rats were used to establish CIA model. Methods: The rats were immunized by intradermal injection with the emulsion prepared by bovine C II and IFA at the tail head. After 7 days, the rats were boosted once with the same method. Thereafter, the morphological changes of the four paws of the rats were examined every day. […] Another 8 female Lewis rats were not subjected to model establishment and set as the control group. PBS was administrated to both the model group and the control group. […] The inflammation scores of the four paws of the rats in each group were evaluated during the administration (once every other day), and the area under the curve (AUC) of the inflammation score was calculated during the administration. During drug discontinuation, the inflammation scores of the four paws of the rats in each group were continuously evaluated (once every other day), and the rats were sacrificed on day 22 after drug discontinuation. HE staining was performed on the ankle joint for tissue injury evaluation. The specific scoring criteria were as follows: 0=normal synovial tissue; 1=synovial hyperplasia and inflammatory cell infiltration; 2=pannus formation and cartilage erosion; 3=destruction of most of the cartilage with subchondral bone erosion; 4=loss of joint integrity, ankylosis.

[7] = inflammation score AUC, FNS007 0.2 mmol, adalimumab 1 mg/kg, i.v. once every other day

Molecule | IL-6 levels in the supernatant (PBMC) | Inflammation score and area under the time curve (AUC) (CIA rats [1]) | Th1 (%) (CIA rats [1]) | Th2 (%) (CIA rats [1]) | Th17 (%) (CIA rats [1]) | Treg (%) (CIA rats [1]) | CD3% [2] | CD4% [2] | CD8% [2] | IFN-γ [2] | IL-2 [2] | IL-4 [2] | TNF-α [2] | CD3% [3] | CD4% [3] | CD8% [3] | Observation on the daily condition of rats [5] | Tuberculosis recurrence rate [5] | Inflammation score and area under the time curve (AUC) [5] | Culture of MTB from lungs and spleens of rats at sacrifice [5] | other results
MGPKGRTVIIEQSLGSPKVTK [APL21] | 4.2 ng/mL | 59.44 ± 38.29 | 0.19 ± 0.08 % | 4.23 ± 0.47% | 0.98 ± 0.10% | 5.14 ± 0.90 % | 38.16 ± 8.98% | 18.72 ± 5.85% | 19.06 ± 5.4% | 2.64 ± 0.37 pg/mL | 3.36 ± 1.45 pg/mL | 2.32 ± 1.37 pg/mL | 5.25 ± 1.28 pg/mL | 66.16 ± 4.34% | 23.43 ± 8.46% | 23.43 ± 8.46% | No abnormality | 0% | 53.06 ± 37.25 | Negative | IFN-γ [3]: 5.03 ± 0.22 pg/mL; IL-2 [3]: 4.18 ± 0.41 pg/mL; IL-4 [3]: 1.90 ± 0.15 pg/mL; TNF-α [3]: 2.16 ± 0.14 pg/mL; ALT level [4]: 48.29 ± 21.24 U/L; Hepatitis B activation rate (Ratio of ALT > 100 U/L) [4]: 0%; Observation on the daily condition of mice [4]: No abnormality; Inflammation score and area under the time curve (AUC) [4]: 95.71 ± 51.88
adalimumab | – | – | – | – | – | – | – | – | – | – | – | – | – | – | – | – | obvious toxicity symptoms such as piloerection and reduced activity | 60% | 50.42 ± 27.13 | 6/10 Positive | inflammation score during drug discontinuation compared with that at the time of drug discontinuation (CIA rats [6]; 21 days of observation after stopping at day 21): significantly increased; Pathological score during 21 days of drug discontinuation (CIA rats [6]; HE staining of ankle joint, score 0-4): 2.69 ± 0.80; AUC, during drug discontinuation (day 22-42) (CIA rats [6]; inflammation score AUC after stopping administration at day 21): 96.85 ± 26.51; AUC, during administration (day 1-21) (CIA rats [6]; [7]): 54.51 ± 22.72; AUC, the first week during administration (CIA rats [6]; [7]): 13.93 ± 4.81; AUC, during administration (day 1-21) (CIA rats [6]; inflammation score AUC, FNS007 0.2 mmol, adalimumab 1 mg/kg, i.v. once every other day, listed as adalimumab): 54.51; Incidence of infection in rats (CIA rats [6]; rat, in vivo): 10%; Observation on the daily state of rats (CIA rats [6]; rat, in vivo): Piloerection, epistaxis, prostration, reduced activity, etc.; Tuberculosis recurrence rate ([5]; listed as adalimumab): 60%; Inflammation score and area under the time curve (AUC) ([5]; listed as adalimumab): significantly reduce the inflammation score; Culture of MTB from lungs and spleens of rats at sacrifice ([5]; listed as adalimumab): positive in 6/10 rats
YAKQATLALA [APL7] | 3.7 ng/mL | 60.48 ± 37.31 | 0.17 ± 0.10 % | 4.38 ± 0.81 % | 0.92 ± 0.08% | 5.22 ± 0.77 % | 36.69 ± 17^ % | 18.29 ± 9.08% | 18.66 ± 8.61% | 2.33 ± 0.29 pg/mL | 3.06 ± 0.97 pg/mL | 2.55 ± 1.30 pg/mL | 5.42 ± 1.23 pg/mL | 61.83 ± 11.98% | 26.23 ± 7.31% | 23.72 ± 6.35% | No abnormality | 0% | 55.93 ± 29.87 | Negative | IFN-γ [3]: 5.27 ± 0.59 pg/mL; IL-2 [3]: 4.24 ± 0.34 pg/mL; IL-4 [3]: 2.04 ± 0.19 pg/mL; TNF-α [3]: 2.44 ± 0.22 pg/mL; ALT level [4]: 48.53 ± 20.09 U/L; Observation on the daily condition of mice [4]: No abnormality; Inflammation score and area under the time curve (AUC) [4]: 96.19 ± 48.25
CC[C@H](C)[C@H](N)C(=O)N[C@@H](Cc1c[nH]c2ccccc12)C(=O)N[C@@H](Cc1ccc(O)cc1)C(=O)N[C@H](C(=O)N[C@@H](CO)C(=O)N[C@@H](CS)C(=O)N[C@@H](Cc1ccccc1)C(=O)NCC(=O)N[C@@H](CS)C(=O)N[C@@H](CCC(=O)O)C(=O)N[C@H](C(=O)N[C@@H](Cc1c[nH]cn1)C(=O)N[C@@H](C)C(=O)N[C@@H](CCSC)C(=O)N[C@@H](CC(C)C)C(=O)O)[C@@H](C)O)[C@@H](C)CC [APL9] (H-IWYISCFGCETHAML-OH; N-terminus and C-terminus assumed) | 2.8 ng/mL | 57.39 ± 39.33 | 0.20 ± 0.05 % | 4.27 ± 0.53% | 0.95 ± 0.12 % | 5.35 ± 0.84 % | 36.08 ± 12.9% | 20.45 ± 8.45% | 17.10 ± 8.82% | 2.35 ± 0.27 pg/mL | 3.03 ± 1.05 pg/mL | 1.95 ± 0.95 pg/mL | 4.79 ± 1.08 pg/mL | 66.91 ± 11.93% | 28.67 ± 14.78% | 28.67 ± 14.78% | No abnormality | 0% | 54.49 ± 33.12 | Negative | IFN-γ [3]: 5.01 ± 0.69 pg/mL; IL-2 [3]: 4.60 ± 0.55 pg/mL; IL-4 [3]: 2.24 ± 0.12 pg/mL; TNF-α [3]: 2.38 ± 0.24 pg/mL; ALT level [4]: 47.55 ± 18.78 U/L; Hepatitis B activation rate (Ratio of ALT > 100 U/L) [4]: 0%; Observation on the daily condition of mice [4]: No abnormality; Inflammation score and area under the time curve (AUC) [4]: 97.63 ± 50.13

From patent US20250074946A1, “USE OF SE-DR AFFINITY PEPTIDE IN PREPARING DRUG FOR TREATING RHEUMATIC DISEASE” (HEBEI FITNESS BIOTECHNOLOGY CO., LTD., priority 2021, published 2025)
